According to patent publication US20260256765A1, “METHOD OF TREATING DISEASE USING COMPOUND, AND USE OF COMPOUND” (TENNOR THERAPEUTICS (SUZHOU) LIMITED, priority 2023, published 2026):
Values after ≈ are worked out from the molar mass of the structure shown. Read-outs that look alike come from different tables or passages of the source.

Legend:
Assay type in all cases: cell-based
[1] = tested on: Gram-negative bacteria (14 strains); experiment: MIC by standard broth dilution against clinical DFI isolates, Gram-negative bacteria
Description: (§1) Preparation of test strains: In this example, foot specimens were collected from 49 patients with type II diabetes. Isolates were obtained from the specimens described above through homogenization, plating, and culture at 37° C., and after the removal of fungi and strains with poor growth or strains that could not be isolated and purified, a total of 69 clinical strains were obtained. Among these, 55 strains were Gram-positive bacteria and 14 strains were Gram-negative bacteria. Of the Gram-positive bacteria, 43 strains were staphylococci, including 18 Staphylococcus aureus strains, 8 Staphylococcus epidermidis strains, and 5 Staphylococcus lugdunensis strains. One ATCC standard strain was additionally used as a standard and quality control strain.
(§2) Determination of antibacterial activity: The minimum inhibitory concentration (MIC) and the minimum biofilm bactericidal concentration (MBBC) for in vitro biofilms of the compound of formula (I) and control drugs (see details in 2) against 69 clinically isolated diabetic foot infection clinical strains were evaluated using the standard broth dilution method and the in vitro biofilm culture and drug susceptibility methods reported in the literature.

[2] = tested on: Gram-positive bacteria (55 strains); experiment: MBBC for in vitro biofilms of clinical DFI isolates, Gram-positive bacteria
Description: as §1
(§3) Preparation of biofilms: In a sterile environment, a single, identified, and thawed colony was picked with an inoculation loop and bacterial inoculums were adjusted to a 0.5 McFarland standard, which served as an initial bacterial inoculum. The bacterial inoculum was diluted in a 1:200 ratio by adding 50 μL of the initial bacterial inoculums to 10 mL of a CAMHB medium. 150 μL of the bacterial inoculums was transferred to a CBD plate using a pipette. The inoculated CBD plate was incubated in an incubator at 35±2° C. for 16-20 hours.
as §2

[3] = tested on: Gram-negative bacteria (14 strains); experiment: MBBC for in vitro biofilms of clinical DFI isolates, Gram-negative bacteria
Description: as §1, §3, §2

[4] = tested on: Staphylococci (43 strains); experiment: MIC against clinical DFI isolates, staphylococci total
Description: as §1, §2

[5] = tested on: Staphylococcus aureus (18 strains); experiment: MIC against clinical DFI isolates, Staphylococcus aureus
Description: as §1, §2

[6] = tested on: Staphylococcus epidermidis (8 strains); experiment: MIC against clinical DFI isolates, Staphylococcus epidermidis
Description: as §1, §2

[7] = tested on: Staphylococci (43 strains); experiment: MBBC against biofilms of clinical DFI isolates, staphylococci total
Description: as §1, §3, §2

[8] = tested on: Staphylococcus aureus (18 strains); experiment: MBBC against biofilms of clinical DFI isolates, Staphylococcus aureus
Description: as §1, §3, §2

[9] = tested on: Gram-positive bacteria (55 strains); experiment: MIC by standard broth dilution against clinical DFI isolates, Gram-positive bacteria; settings: Gram-positive bacteria (55 strains), clinical DFI isolates; for MIC50: read-out: MIC50
Description: as §1, §2

[10] = tested on: Staphylococcus epidermidis (8 strains); experiment: MBBC against biofilms of clinical DFI isolates, Staphylococcus epidermidis
Description: as §1, with “strain. […]” for “strain.”
as §2

[11] = biofilms, Gram-positive bacteria (55 strains)
[12] = biofilms, Gram-positive bacteria (55 strains), read-out: MBBC50
[13] = biofilms, Gram-positive bacteria (55 strains), read-out: MBBC90
[14] = Staphylococci (43 strains), total
[15] = Staphylococci (43 strains), total, read-out: MIC50
[16] = Staphylococci (43 strains), total, read-out: MIC90
[17] = Staphylococcus aureus (18 strains)
[18] = Staphylococcus aureus (18 strains), read-out: MIC50
[19] = Staphylococcus aureus (18 strains), read-out: MIC90
[20] = biofilms, Staphylococci (43 strains), total, read-out: MBBC50
[21] = biofilms, Staphylococci (43 strains), total, read-out: MBBC90
[22] = biofilms, Staphylococcus aureus (18 strains), read-out: MBBC50
[23] = biofilms, Staphylococcus aureus (18 strains), read-out: MBBC90

`CC(=O)NC[C@H]1CN(c2ccc(N3CCOCC3)c(F)c2)C(=O)O1` [Linezolid] was tested. Which MIC50 [1] did it give?
The MIC50 was greater than 128 µg/mL.

And the MIC90 [1]?
Its MIC90 is greater than 128 µg/mL.

What about the MBBC50 [2, 11] of the same compound?
Its MBBC50 is greater than 128 µg/mL.

What about the MBBC90 [2, 11] of the same compound?
The MBBC90 was greater than 128 µg/mL.

What about the MBC [2, 12] of the same compound?
The MBC was greater than 128 µg/mL.

What about the MBC [2, 13] of the same compound?
The MBC was greater than 128 µg/mL.

What about the MBC ([3]; read-out: MBBC50) of the same compound?
Its MBC is greater than 128 µg/mL.

What about the MBC ([3]; read-out: MBBC90) of the same compound?
The MBC was greater than 128 µg/mL.

What about the MIC range [4, 14] of the same compound?
Its MIC range is 0.5~4 μg/mL.

What about the MIC50 [4, 15] of the same compound?
The MIC50 was 2 µg/mL (≈ 5.93 µM).

And the MIC90 [4, 16]?
Its MIC90 is 4 µg/mL (≈ 11.9 µM).

What about the MIC50 ([4]; staphylococci, read-out: MIC50) of the same compound?
The MIC50 was 2 µg/mL (≈ 5.93 µM).

And the MIC90 ([4]; staphylococci, read-out: MIC90)?
Its MIC90 is 4 µg/mL (≈ 11.9 µM).

And the MIC range [5, 17]?
Its MIC range is 2~4 μg/mL.

And the MIC50 [5, 18]?
The MIC50 was 2 µg/mL (≈ 5.93 µM).

What about the MIC90 [5, 19] of the same compound?
Its MIC90 is 4 µg/mL (≈ 11.9 µM).

And the MIC range [6]?
Its MIC range is 2~4 μg/mL.

And the MBC [7, 20]?
Its MBC is greater than 128 µg/mL.

And the MBC [7, 21]?
Its MBC is greater than 128 µg/mL.

What about the MBC [8, 22] of the same compound?
Its MBC is greater than 128 µg/mL.

And the MBC [8, 23]?
The MBC was greater than 128 µg/mL.

With `CO[C@H]1/C=C/O[C@@]2(C)Oc3c(C)c(O)c4c(O)c(c(/C=N/N5CCN(C)CC5)c(O)c4c3C2=O)NC(=O)/C(C)=C\C=C\[C@H](C)[C@H](O)[C@@H](C)[C@@H](O)[C@@H](C)[C@H](OC(C)=O)[C@@H]1C` [Rifampicin] as the compound, how does the MIC90 [9] read?
The MIC90 was 0.5 µg/mL (≈ 0.608 µM).

What about the MIC50 [9] of the same compound?
The MIC50 was no more than 0.015 µg/mL.

And the MIC50 [1]?
Its MIC50 is 32 µg/mL (≈ 38.9 µM).

And the MIC90 [1]?
The MIC90 was greater than 32 µg/mL.

What about the MBC [2, 12] of the same compound?
Its MBC is 8 µg/mL (≈ 9.72 µM).

And the MBC [2, 13]?
The MBC was greater than 16 µg/mL.

What about the MBC ([3]; read-out: MBBC50) of the same compound?
The MBC was greater than 16 µg/mL.

And the MBC ([3]; read-out: MBBC90)?
Its MBC is greater than 32 µg/mL.

What about the MIC50 [4, 15] of the same compound?
The MIC50 was no more than 0.015 µg/mL.

And the MIC90 [4, 16]?
The MIC90 was no more than 0.015 µg/mL.

What about the MIC range [5, 17] of the same compound?
Its MIC range is no more than 0.015 µg/mL.

What about the MIC50 [5, 18] of the same compound?
Its MIC50 is no more than 0.015 µg/mL.

And the MIC90 [5, 19]?
Its MIC90 is no more than 0.015 µg/mL.

What about the MIC range [6] of the same compound?
Its MIC range is no more than 0.015 µg/mL.

What about the MBC [7, 20] of the same compound?
The MBC was 4 µg/mL (≈ 4.86 µM).

And the MBC [7, 21]?
Its MBC is greater than 16 µg/mL.

And the MBBC range ([8]; biofilms, Staphylococcus aureus (18 strains))?
Its MBBC range is ≤0.03~16 ^ μg/mL.

And the MBC [8, 22]?
Its MBC is 16 µg/mL (≈ 19.4 µM).

What about the MBC [8, 23] of the same compound?
Its MBC is greater than 16 µg/mL.

And the MBBC range [10]?
The MBBC range was 0.03~16 ^ μg/mL.

What does the source list for `C/C(=C\C(=O)OCCCCCCCCC(=O)O)C[C@@H]1OC[C@H](C[C@@H]2O[C@H]2[C@@H](C)[C@H](C)O)[C@@H](O)[C@H]1O` [Mupirocin]?
MIC90 [9]: 64 µg/mL (≈ 128 µM); MIC50 [1]: > 128 µg/mL; MIC90 [1]: > 128 µg/mL; MBC [2, 12]: > 128 µg/mL; MBC [2, 13]: > 128 µg/mL; MBC ([3]; read-out: MBBC50): > 128 µg/mL; MBC ([3]; read-out: MBBC90): > 128 µg/mL; MIC50 [4, 15]: 0.25 µg/mL (≈ 0.499 µM); MIC90 [4, 16]: 32 µg/mL (≈ 63.9 µM); MIC50 [5, 18]: 0.25 µg/mL (≈ 0.499 µM); MIC90 [5, 19]: > 128 µg/mL; MIC range [6]: 0.25~0.5 μg/mL; MBC [7, 20]: > 128 µg/mL; MBC [7, 21]: > 128 µg/mL; MBC [8, 22]: > 128 µg/mL; MBC [8, 23]: > 128 µg/mL

For `CN[C@H](CC(C)C)C(=O)N[C@H]1C(=O)N[C@@H](CC(N)=O)C(=O)N[C@H]2C(=O)N[C@H]3C(=O)N[C@H](C(=O)N[C@H](C(=O)O)c4cc(O)cc(O)c4-c4cc3ccc4O)[C@H](O)c3ccc(c(Cl)c3)Oc3cc2cc(c3O[C@@H]2O[C@H](CO)[C@@H](O)[C@H](O)[C@H]2O[C@H]2C[C@](C)(N)[C@H](O)[C@H](C)O2)Oc2ccc(cc2Cl)[C@H]1O` [Vancomycin], which MIC90 [9] is on record?
The MIC90 was 2 µg/mL (≈ 1.38 µM).

What about the MIC50 [9] of the same compound?
The MIC50 was 2 µg/mL (≈ 1.38 µM).

And the MIC50 [1]?
Its MIC50 is greater than 128 µg/mL.

What about the MIC90 [1] of the same compound?
Its MIC90 is greater than 128 µg/mL.

What about the MBBC50 [2, 11] of the same compound?
The MBBC50 was greater than 128 µg/mL.

And the MBBC90 [2, 11]?
The MBBC90 was greater than 128 µg/mL.

What about the MBC ([2]; read-out: MBBC50) of the same compound?
Its MBC is greater than 128 µg/mL.

And the MBC ([2]; read-out: MBBC90)?
The MBC was greater than 128 µg/mL.

What about the MBC ([3]; read-out: MBBC50) of the same compound?
The MBC was greater than 128 µg/mL.

What about the MBC ([3]; read-out: MBBC90) of the same compound?
The MBC was greater than 128 µg/mL.

And the MIC50 [4]?
The MIC50 was 2 µg/mL (≈ 1.38 µM).

What about the MIC90 [4] of the same compound?
The MIC90 was 2 µg/mL (≈ 1.38 µM).

And the MIC range [4, 14]?
Its MIC range is 1~4 μg/mL.

What about the MIC50 ([4]; staphylococci) of the same compound?
Its MIC50 is 2 µg/mL (≈ 1.38 µM).

What about the MIC90 ([4]; staphylococci) of the same compound?
The MIC90 was 2 µg/mL (≈ 1.38 µM).

And the MIC50 ([5]; Staphylococcus aureus)?
Its MIC50 is 2 µg/mL (≈ 1.38 µM).

What about the MIC90 ([5]; Staphylococcus aureus) of the same compound?
Its MIC90 is 2 µg/mL (≈ 1.38 µM).

What about the MIC range [5, 17] of the same compound?
The MIC range was 1~2 μg/mL.

And the MIC range [6]?
Its MIC range is 2~4 μg/mL.

What about the MBC ([7]; read-out: MBBC50) of the same compound?
Its MBC is greater than 128 µg/mL.

And the MBC ([7]; read-out: MBBC90)?
The MBC was greater than 128 µg/mL.

What about the MBC ([8]; Staphylococcus aureus, read-out: MBBC50) of the same compound?
The MBC was greater than 128 µg/mL.

And the MBC ([8]; Staphylococcus aureus, read-out: MBBC90)?
Its MBC is greater than 128 µg/mL.
